Measured values as given in PubChem BioAssay AID624167 (Sanford-Burnham Center for Chemical Genomics, 2012).
Activity calls are given as the source filed them.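 How the source made its calls: active means mean IC50 for reducing PEG3 promoter reporter signal at or below a set limit, with IC50 above the limit in both counter screens; inactive means the rest, including counter screen hits.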

How the values were obtained:
PEG-3 [1] = target: PEG-3 (UniProt Q6IN02); test: Peg3 promoter luciferase inhibitors, potency, dose response, cell-based, HeLa, CREF/GAPDH counter-screen panel (AID 624167); conditions: HeLa PEG-Prom luciferase reporter, overnight, CREF/GAPDH counter-screens, mean of runs
Chain of PEG-3 (UniProt Q6IN02) (Q6IN02 whole entry, looked up): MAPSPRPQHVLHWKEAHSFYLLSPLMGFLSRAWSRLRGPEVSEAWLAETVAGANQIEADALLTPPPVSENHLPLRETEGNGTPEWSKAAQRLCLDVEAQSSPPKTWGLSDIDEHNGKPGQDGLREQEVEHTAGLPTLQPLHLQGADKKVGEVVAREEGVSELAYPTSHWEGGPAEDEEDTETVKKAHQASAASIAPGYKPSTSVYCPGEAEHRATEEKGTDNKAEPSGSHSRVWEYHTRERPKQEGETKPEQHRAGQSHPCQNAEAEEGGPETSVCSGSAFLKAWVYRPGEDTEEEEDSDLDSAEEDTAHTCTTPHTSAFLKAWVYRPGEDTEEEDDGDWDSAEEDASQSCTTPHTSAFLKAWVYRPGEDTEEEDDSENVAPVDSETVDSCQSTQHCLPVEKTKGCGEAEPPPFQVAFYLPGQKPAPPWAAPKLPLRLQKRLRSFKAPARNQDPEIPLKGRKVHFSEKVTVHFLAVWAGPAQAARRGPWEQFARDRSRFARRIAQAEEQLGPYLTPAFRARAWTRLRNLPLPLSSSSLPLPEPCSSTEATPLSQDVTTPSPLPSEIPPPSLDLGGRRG

PEG-3 [2] = test: as above; conditions: HeLa PEG-Prom luciferase reporter, overnight, CREF/GAPDH counter-screens
[3] = run 1, dose range 1, individual replicate IC50 per panel
[4] = run 2, dose range 1, individual replicate IC50 per panel

Row | SMILES | IC50 (PEG-3 [1]) | IC50 (PEG-3 [2]; [3]) | IC50 (PEG-3 [2]; [4])
1 | COc1cccc(Nc2nc(C(N)C3CCCCC3)cs2)n1 (stereo not drawn) | inactive | 21.8 µM | 47.6 µM
2 | COc1cc2c(cc1OC)CN(c1nc(-c3cccnc3)nc3ccccc13)CC2 | inactive | 31.3 µM | 63.8 µM
3 | O=C1N[C@@H](c2ccccc2)COC(=O)[C@@H](Cc2ccc(F)cc2)CC/C=C/C[C@H]1CC(=O)N(CCO)Cc1ccccc1 | inactive | 41 µM | > 100 µM
4 | CCCCCCOc1ccc(/C(C)=N/NC2=NCCN2)cc1 | 11.9 µM | 15.7 µM | 8.2 µM
5 | COc1ccccc1C1c2ccc3ccccc3c2Oc2ncn(CCCO)c(=N)c21 (stereo not drawn) | 15.8 µM | 17.4 µM | 14.2 µM
6 | COc1cc(/C=C2\SC(=S)N(CCC(=O)N3CCCCC3)C2=O)cc(OC)c1OC | inactive | 35.1 µM | 19.1 µM
7 | c1ccc(C(=NNc2nc3ccccc3s2)c2ccccn2)cc1 | 16 µM | 6.63 µM | 25.3 µM
8 | CN[C@H]1C[C@H]2c3[nH]c4ccc(-c5cccc(C)c5)cc4c3CCN2C[C@H]1[C@H](C)O | 13.6 µM | 18.8 µM | 8.37 µM
9 | CCN(CC)CCSc1nnc2c3cc(C)ccc3n(Cc3ccccc3)c2n1 | inactive | 30.6 µM | 93.6 µM
10 | CCCN(CC(=O)Nc1cc(Cl)cc(Cl)c1)CC(=O)Nc1ccc(F)c(F)c1F | inactive | 14.6 µM | 43.7 µM
11 | CCN1CCCC1CN(Cc1cc2ccc(C)cc2[nH]c1=O)C(=S)Nc1ccc(OC)cc1 (stereo not drawn) | inactive | 42 µM | 37.5 µM
12 | C=CCN=C1NN=C(c2cc(C)n(CC=C)c2C)CS1 | 17.4 µM | 11.5 µM | 23.3 µM
13 | Cc1cc(C)c2c(N)c3ccccc3nc2n1 | inactive | 18.5 µM | > 100 µM
14 | COc1ccc(-c2cc(C(=O)Nc3ccccc3N3CCOCC3)c3ccccc3n2)cc1OC | > 100 µM (inactive) | > 100 µM | > 100 µM
15 | CC(NS(=O)(=O)OCC(Cl)(Cl)Cl)c1ccc(C(C)(C)C)cc1 (stereo not drawn) | inactive | 38.1 µM | > 100 µM
16 | COc1ccc(C2NCCc3c2[nH]c2ccccc32)cc1COc1ccc(F)cc1 (stereo not drawn) | 12.3 µM | 16.9 µM | 7.75 µM
17 | COc1ccc2sc(-c3ccc(S(C)(=O)=O)cc3)c(C#Cc3cncn3C)c2c1 | inactive | 21.2 µM | > 100 µM
18 | Cc1ccccc1CN1Cc2cnnn2-c2ccccc2C1C#N (stereo not drawn) | 13.9 µM | 15.6 µM | 12.1 µM
19 | CC(C)c1ccc(-c2nc3ccccc3s2)cc1 | inactive | 14 µM | 40.2 µM
20 | COCCn1c(C)cc(C(=O)CSc2nnc3ccccn23)c1C | 15.1 µM | 8.34 µM | 21.8 µM
21 | Cc1cc(Sc2ncnc(N)c2[N+](=O)[O-])ncn1 | 15.2 µM | 18.7 µM | 11.7 µM
22 | O=C(/C=C/c1ccccc1)NC(NC(=S)Nc1cccc(Cl)c1)C(Cl)(Cl)Cl (stereo not drawn) | 14.3 µM | 18 µM | 10.6 µM

Row | SMILES | IC50 (PEG-3 [1]) | IC50 (PEG-3 [2]; [3]) | IC50 (PEG-3 [2]; [4])
23 | CCOc1cccc2sc(N(CCCN(C)C)C(=O)c3ccc(S(=O)(=O)N(C)Cc4ccccc4)cc3)nc12 | 16.6 µM | 18.6 µM | 14.7 µM
24 | CCN1CCN(Cc2c(O)ccc3c2O/C(=C\C=C\c2ccccc2)C3=O)CC1 | inactive | 46.6 µM | 11.5 µM
25 | COc1ccc(NC(=O)N(C)[C@H]2C[C@H]3c4[nH]c5ccc(-c6cccc(C)c6)cc5c4CCN3C[C@H]2[C@H](C)O)cc1 | inactive | 23.6 µM | 22.7 µM
26 | Cn1cc(CN2CCCC(C(=O)Nc3ccc(-c4cccc(F)c4)cc3)C2)cn1 (stereo not drawn) | inactive | 19.6 µM | 29.8 µM
27 | CCCCCCCn1c(=N)n(CC(O)c2ccco2)c2ccccc21 (stereo not drawn) | inactive | 22 µM | 22.2 µM
28 | COc1ccc(Nc2nc(-c3ccccc3)nc3ccccc23)cc1S(=O)(=O)N1CCOCC1 | inactive | 9.14 µM | 33.9 µM
29 | COc1ccc(CNCCc2c(C)[nH]c3ccc(OC(F)(F)F)cc23)c(OC)c1 | 13.4 µM | 13.6 µM | 13.1 µM
30 | CC(=O)c1cccc(NC(=O)c2cccc3c(-c4cccnc4)coc23)c1 | inactive | 25.6 µM | > 100 µM
31 | Cc1ccc(S(=O)(=O)N(C)C)cc1NC(=O)c1cncc(Br)c1 | inactive | 47.7 µM | 8.59 µM
32 | CN(C)S(=O)(=O)c1cccc(NC(=O)CSc2cccc3cccnc23)c1 | inactive | 23.7 µM | 19.6 µM
33 | Cc1cc2c(c(/C=C/C(=O)c3ccccc3)c1)OC1(C=C2)Oc2ccccc2C(=O)N1C (stereo not drawn) | 18 µM | 20.4 µM | 15.5 µM
34 | O=C(NC1CCCCC1)C(c1cccnc1)N(C(=O)CCl)c1cccc(Cl)c1 (stereo not drawn) | 15.5 µM | 17.6 µM | 13.4 µM
35 | C[C@@H]1O[C@@H](O[C@@H]2C=C3CCC4C(CC[C@]5(C)[C@@H](c6ccc(=O)oc6)CC[C@]45O)[C@@]3(C)CC2)[C@H](O)[C@H](O)[C@H]1O (stereo partly drawn) | 0.45 µM | 0.709 µM | < 0.2 µM
36 | Cn1nnnc1Sc1ncnc2scc(-c3ccc4c(c3)OCO4)c12 | inactive | 34.5 µM | 53.6 µM
37 | COc1ccc(-c2nc3c(C(=O)NCCN(C)C)cccc3c3ccccc23)cc1 | 15 µM | 17.3 µM | 12.8 µM
38 | O=c1c2c3c(sc2nc(N2CCNCC2)n1CCc1ccccc1)CCCCC3 | inactive | 32.1 µM | 17.4 µM
39 | Cc1ccc(C(=O)N(CCCN(C)C)c2nc3ccc(Cl)cc3s2)cc1C | 18.4 µM | 18.9 µM | 18 µM
40 | CC(=O)Nc1ccc(S(=O)(=O)N(Cc2cccnc2)Cc2cc3ccccc3[nH]c2=O)cc1 | > 100 µM (inactive) | > 100 µM | > 100 µM
41 | Cc1ccc(Cn2c(=N)n(CC(=O)c3ccccc3)c3ccccc32)cc1 | 16.5 µM | 15.4 µM | 17.6 µM
42 | COc1ccc2sc(N(CCCN(C)C)C(=O)c3ccc(S(=O)(=O)N4CCCc5ccccc54)cc3)nc2c1 | inactive | 20.7 µM | 21.8 µM
43 | CCc1nc(Sc2nnnn2-c2ccccc2)c2c3c(sc2n1)CCCC3 | inactive | 24.7 µM | 16.3 µM
44 | N/C(=N\OC(=O)c1ccccc1)C(Cc1ccccc1)C(=O)NOC(=O)c1ccccc1 (stereo not drawn) | 13 µM | 15 µM | 11 µM

Row | SMILES | IC50 (PEG-3 [1]) | IC50 (PEG-3 [2]; [3]) | IC50 (PEG-3 [2]; [4])
45 | CCC(=O)NC(c1cccs1)c1cc([N+](=O)[O-])c2cccnc2c1O (stereo not drawn) | 12.1 µM | 12.4 µM | 11.7 µM
46 | O=S(=O)(c1cccs1)N1CCN(c2ccnc3cc(Cl)ccc23)CC1 | 17.4 µM | 11.7 µM | 23.2 µM
47 | O=C1NC(=O)N(Cc2ccccc2)C(=O)/C1=C\C=C\c1ccco1 | 13.5 µM | 15.1 µM | 12 µM
48 | CCCCCCCNC(=O)C1(CC2CC(c3ccccc3)=NO2)CCNCC1 (stereo not drawn) | inactive | 35.4 µM | 16.7 µM
49 | c1ccc(CN2CCC(Nc3nc(-c4cccnc4)nc4ccccc34)CC2)cc1 | inactive | 20.2 µM | 26.7 µM
50 | CNCC[C@@H](Oc1ccc(C(F)(F)F)cc1)c1ccccc1 | inactive | 27 µM | 53.2 µM
51 | CCN1CCN(c2nc(Nc3cc(OC)ccc3OC)nc(Nc3cc(OC)ccc3OC)n2)CC1 | 17.5 µM | 17 µM | 18.1 µM
52 | Cc1cc(C(=O)COC(=O)C2=COCCO2)c(C)n1-c1ccccc1 | 11.8 µM | 11.1 µM | 12.5 µM
53 | COc1ccc(CNC(=O)Nc2nc(C(N)Cc3ccc(F)cc3)cs2)cc1 (stereo not drawn) | 14.6 µM | 16.6 µM | 12.5 µM
54 | COc1ccc2nc3n(c(=O)c2c1)-c1cc2ccccc2cc1C(=O)NC3Cc1ccc(O)cc1 (stereo not drawn) | 17.5 µM | 21.2 µM | 13.9 µM
55 | Cc1cc(C=C2C(=O)c3ccccc3C2=O)c(C)n1-c1ccccc1 | inactive | 39.6 µM | > 100 µM
56 | CCOC(=O)CN(C(=O)CSc1nnc2c(n1)[nH]c1ccc(F)cc12)c1ccccc1 | inactive | 25 µM | 21.7 µM
57 | Cc1ccccc1NC(=O)Nc1nc(C(N)C2CCCCC2)cs1 (stereo not drawn) | inactive | 21.1 µM | 26.5 µM
58 | COc1ccc(-c2cc(C(=O)N3CCN(c4ccccc4F)CC3)c3ccccc3n2)c(OC)c1 | 11 µM | 9.03 µM | 13 µM
59 | NC(=O)c1nsc(C(=O)N(c2ccccc2F)C(C(=O)NCc2ccc(F)cc2)c2ccc(O)cc2)c1N (stereo not drawn) | inactive | 30.4 µM | 16.6 µM
60 | COc1ccc(N(Cc2cc3cc(OC)ccc3[nH]c2=O)S(=O)(=O)c2ccc(NC(C)=O)cc2)cc1 | 14.4 µM | 17.8 µM | 11 µM
61 | c1ccc(C[C@H]2CNCCN2CCCCC2CCCCC2)cc1 | 17.5 µM | 20.1 µM | 14.8 µM
62 | CCN(Cc1ccccc1)S(=O)(=O)c1ccc(C(=O)N(CCCN(C)C)c2nc3cc4c(cc3s2)OCCO4)cc1 | inactive | 33.3 µM | > 100 µM
63 | Cc1ccc(C2=NC(=O)/C(=C/c3cc(O)c(O)c(Br)c3)S2)cc1 | inactive | 17.1 µM | 27.1 µM
64 | CCOc1cc(/C=N/N=C(N)N)ccc1OCc1ccc(Cl)cc1 | 13 µM | 16.9 µM | 9.05 µM
65 | Cc1ccc(C)c(OCC(O)CN2CCC(CN3C(=O)c4cccc5cccc(c45)C3=O)CC2)c1 (stereo not drawn) | 17.2 µM | 18.4 µM | 15.9 µM
66 | COC(=O)c1cn(NC(=O)c2cc([N+](=O)[O-])ccc2F)c(=O)c2ccccc12 | inactive | 26.1 µM | 46.5 µM
